In US10245249B2, “Pharmaceutical compositions comprising nitroxyl donors” (Cardioxyl Pharmaceuticals, Inc., priority 2013, dated 2019):

Test: HNO production determined via N2O quantification (GC headspace analysis)
Assay type: physicochemical
Conditions: PBS, 37° C., 90 minutes incubation
From the text: Nitrous oxide (N2O) is produced via the dimerization and dehydration of HNO, and is the most common marker for nitroxyl production (Fukuto et al., Chem. Res. Toxicol. 18:790-801 (2005)). […] Using either nitrous oxide gas or Angeli's salt (AS) as a standard, the relative amounts of N2O released from compounds of the disclosure was examined via gas chromatography (GC) headspace analysis.
A procedure for determining the relative amounts of N2O released from compounds of the disclosure is as follows. GC was performed on an Agilent gas chromatograph equipped with a split injector (10:1 splitting), microelectron capture detector, and a HP-MOLSIV 30 m×0.32 mm×25 μm molecular sieve capillary column. Helium was used as the carrier (4 mL/min) gas and nitrogen was used as the make-up (20 mL/min) gas. The injector oven and the detector oven were kept at 200° C. and 325° C., respectively. All nitrous oxide analyses were performed with the column oven held at a constant temperature of 200° C.
All gas injections were made using an automated headspace analyzer. Vial pressurization was 15 psi. The analyzer's sample oven, sampling valve, and transfer line were kept at 40° C., 45° C., and 50° C., respectively. The oven stabilization, vial pressurization, loop fill, loop equilibration, and sample injection times were 1.00 min., 0.20 min., 0.20 min., 0.05 min., and 1.00 min., respectively.
All determinations used a batch of nominal 20 mL headspace vials with volumes pre-measured for sample uniformity (actual vial volume varied by <2.0% relative standard deviation (n=6)). The average vial volume for the batch was determined from six randomly-selected vials by calculating the weight difference between the capped and sealed empty (i.e., air-filled) vial and the capped and sealed deionized water-filled vial using the known density of deionized water, then averaging. Blanks were prepared by sealing and capping two vials then purging each for 20 seconds with a gentle argon stream. Nitroxyl standards were prepared by sealing and capping four vials then purging each for 1 minute with a gentle stream, from a gas cylinder, of a 3000 ppm […].
CXL-1020 (N-hydroxy-2-methanesulfonylbenzene-1-sulfonamide) “standards” were prepared by, in duplicate, accurately weighing 10±0.5 mg of CXL-1020 and adding it to each 4 mL vial. Using an auto pipette, 1 mL of argon-purged anhydrous DMF (Sigma-Aldrich) was added to each 4 mL vial to form a CXL-1020 stock solution for each sample and the vials were capped and shaken and/or sonicated to insure complete dissolution upon visual observation. Using an auto pipette, 20 mL vials were charged with 5 mL of PBS (purged for at least 30 min. with argon prior to use), purged with argon for at least 20 sec., and sealed with a rubber septum. Using a 50 μL syringe, 50 μL of the CXL-1020 stock solution was injected into each 20 mL vial containing the PBS.
Samples were prepared as follows. In duplicate, 18±1 mg of each sample was accurately weighed into each 4 mL vial. Using an auto pipette, 1 mL of argon-purged anhydrous DMF was added to each 4 mL vial to form a sample stock solution for each sample and the vials were capped and shaken and/or sonicated to insure complete sample dissolution upon visual observation. Using an auto pipette, 20 mL vials were charged with 5 mL of PBS (purged for at least 30 min. with argon prior to use), purged with argon for at least 20 sec., and sealed with a rubber septum. The vials were equilibrated for at least 10 min. at 37° C. in a dry block heater. Thereafter, using a 50 μL syringe, 50 μL of a sample stock solution was injected into each 20 mL vial containing the PBS. The vials were then held at 37° C. in the dry block heater for a time period such that the sum of the time spent in the dry block heater plus the time spent in the automated headspace analyzer oven before sample injection equaled the desired incubation time. […]

Point of comparison: `NS(=O)(=O)c1cc(S(=O)(=O)NO)cs1` [Compound 34, 4-N-Hydroxythiophene-2,4-disulfonamide], “Relative N2O Yield (90 minutes incubation)” value 100%. Against it:
- O=S(=O)(NO)c1coc2ccccc12 [Compound 6, N-Hydroxy-1-benzofuran-3-sulfonamide] — lower, 85%
- O=S(=O)(NO)c1ncccc1Br [Compound 33, 3-Bromo-N-hydroxypyridine-2-sulfonamide] — lower, 85.5%
- O=S(=O)(NO)c1ccc(-c2cc(C(F)(F)F)on2)s1 [Compound 36, N-Hydroxy-5-[5-(trifluoromethyl)-1,2-oxazol-3-yl]thiophene-2-sulfonamide] — lower, 51%
- O=S(=O)(NO)C1=C(Cl)NC2SC=CN12 (centres unmarked) [Compound 37, 6-Chloro-N-hydroxy-7H,7aH-imidazo[2,1-b][1,3]thiazole-5-sulfonamide] — lower, 51%
- O=S(=O)(NO)c1ccc(-c2ccno2)s1 [Compound 38, N-Hydroxy-5-(1,2-oxazol-5-yl)thiophene-2-sulfonamide] — lower, 25%
- O=S(=O)(NO)c1ccc(-c2cnco2)s1 [Compound 40, N-Hydroxy-5-(1,3-oxazol-5-yl)thiophene-2-sulfonamide] — lower, 50%
- Cc1cc(S(=O)(=O)NO)c(C)s1 [Compound 41, N-Hydroxy-2,5-dimethylthiophene-3-sulfonamide] — lower, 13%
- COC(=O)c1cc(C)c(S(=O)(=O)NO)s1 [Compound 42, Methyl 5-(hydroxysulfamoyl)-4-methylthiophene-2-carboxylate] — lower, 91%
- O=S(=O)(NO)c1ccc(S(=O)(=O)c2ccccc2)s1 [Compound 43, 5-(Benzenesulfonyl)-N-hydroxythiophene-2-sulfonamide] — lower, 82%
- O=S(=O)(NO)c1ccc(-c2ccon2)s1 [Compound 44, N-Hydroxy-5-(1,2-oxazol-3-yl)thiophene-2-sulfonamide] — lower, 81%
- O=S(=O)(NO)c1ccc(Br)s1 [Compound 45, 5-Bromo-N-hydroxythiophene-2-sulfonamide] — lower, 76%
- O=S(=O)(NO)c1sc(Br)cc1Br [Compound 46, 3,5-Dibromo-N-hydroxythiophene-2-sulfonamide] — lower, 95%
- O=S(=O)(NO)c1sccc1Cl [Compound 48, 3-Chloro-N-hydroxythiophene-2-sulfonamide] — lower, 82%
- O=S(=O)(NO)c1c(Cl)ccc2nonc12 [Compound 50, 5-Chloro-N-hydroxy-2,1,3-benzoxadiazole-4-sulfonamide] — lower, 31%
- COc1ccc(S(=O)(=O)NO)cc1OC [Compound 52, N-Hydroxy-3,4-dimethoxybenzene-1-sulfonamide] — lower, 11%
- Cc1cc(C)c(C)c(S(=O)(=O)NO)c1C [Compound 53, N-Hydroxy-2,3,5,6-tetramethylbenzene-1-sulfonamide] — lower, 70%
- O=S(=O)(NO)c1cc(C(F)(F)F)cc(C(F)(F)F)c1 [Compound 54, N-Hydroxy-3,5-bis(trifluoromethyl)benzene-1-sulfonamide] — lower, 2%
- COC(=O)c1ccc(Cl)c(S(=O)(=O)NO)c1 [Compound 55, Methyl 4-chloro-3-(hydroxysulfamoyl)benzoate] — lower, 87%
- O=C(c1ccc(Cl)c(S(=O)(=O)NO)c1)N1CCC(=NO)CC1 [Compound 58, 2-Chloro-N-hydroxy-5-[4-(hydroxyimino)piperidine-1-carbonyl]benzene-1-sulfonamide] — lower, 92%
- COCCN(C)C(=O)c1ccc(Cl)c(S(=O)(=O)NO)c1 [Compound 59, 4-Chloro-3-(hydroxysulfamoyl)-N-(2-methoxyethyl)-N-methylbenzamide] — lower, 82%
- O=C(O)c1cc(S(=O)(=O)NO)ccc1O [Compound 60, 2-Hydroxy-5-(hydroxysulfamoyl)benzoic acid] — lower, 9%
- CN1CCOc2cc(S(=O)(=O)NO)ccc21 [Compound 61, N-Hydroxy-4-methyl-3,4-dihydro-2H-1,4-benzoxazine-7-sulfonamide] — lower, 11%
- O=S(=O)(NO)c1ccc(O)cc1Cl [Compound 62, 2-Chloro-N,4-dihydroxybenzene-1-sulfonamide] — lower, 28%
- CN(C)C(=O)c1cc(S(=O)(=O)NO)c(Cl)cc1O [Compound 64, 4-Chloro-2-hydroxy-5-(hydroxysulfamoyl)-N,N-dimethylbenzamide] — lower, 36%
- CN1CCc2cc(Cl)c(S(=O)(=O)NO)cc21 [Compound 65, 5-Chloro-N-hydroxy-1-methyl-2,3-dihydro-1H-indole-6-sulfonamide] — lower, 71%
- O=S(=O)(NO)c1cc(O)ccc1Cl [Compound 66, 2-Chloro-N,5-dihydroxybenzene-1-sulfonamide] — lower, 80%
- CN1CCc2cc(Br)c(S(=O)(=O)NO)cc21 [Compound 67, 5-Bromo-N-hydroxy-1-methyl-2,3-dihydro-1H-indole-6-sulfonamide] — lower, 59%
- COCc1ccc(Cl)c(S(=O)(=O)NO)c1 [Compound 68, 2-Chloro-N-hydroxy-5-(methoxymethyl)benzene-1-sulfonamide] — lower, 86%
- COC(=O)c1ccc(S(=O)(=O)NO)o1 [Compound 69, Methyl 5-(hydroxysulfamoyl)furan-2-carboxylate] — the same, 100%
- Cc1cc(S(=O)(=O)NO)c(C)o1 [Compound 70, N-Hydroxy-2,5-dimethylfuran-3-sulfonamide] — lower, 6%
- CCS(=O)(=O)c1ccccc1S(=O)(=O)NO [Compound 72, 2-(Ethanesulfonyl)-N-hydroxybenzene-1-sulfonamide] — lower, 97%
- CC(C)S(=O)(=O)c1ccccc1S(=O)(=O)NO [Compound 73, N-Hydroxy-2-(propane-2-sulfonyl)benzene-1-sulfonamide] — lower, 97%
- CC(=O)N1CCOc2ccc(S(=O)(=O)NO)cc21 [Compound 74, 4-Acetyl-N-hydroxy-3,4-dihydro-2H-1,4-benzoxazine-6-sulfonamide] — lower, 17%
- COC(=O)c1ccc(S(=O)(=O)NO)n1C [Compound 75, Methyl 5-(hydroxysulfamoyl)-1-methyl-1H-pyrrole-2-carboxylate] — lower, 4%
- CC(=O)Nc1ncc(S(=O)(=O)NO)s1 [Compound 76, N-[5-(Hydroxysulfamoyl)-1,3-thiazol-2-yl]acetamide] — lower, 76%
- Cc1oc(C)c(S(=O)(=O)NO)c1C(=O)N1CCOCC1 [Compound 77, N-Hydroxy-2,5-dimethyl-4-(morpholine-4-carbonyl)furan-3-sulfonamide] — lower, 14%
- CCOC(=O)c1coc(S(=O)(=O)NO)c1 [Compound 78, Ethyl 5-(hydroxysulfamoyl)furan-3-carboxylate] — lower, 86%
